Common to all, as to assay: NCI-60 cell line screen, 48 h
The test system of assay [1] is SK-MEL-5 melanoma.
Assay [2] deals with SF-295 CNS.
In assay [3] the test system is MOLT-4 leukemia.
The subject of assay [4] is A549 NSCLC.
Assay [5] deals with HOP-62 NSCLC.
The subject of assay [6] is MALME-3M melanoma.
The test system of assay [7] is 786-0 renal.
Assay [8] deals with MDA-MB-231 breast.
Assay [9] concerns MDA-MB-435.
For assay [10], the system named is NCI/ADR-RES ovarian.

The source of these data is PubChem BioAssay (NCI).

Each structure is given as a SMILES string.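 Assay format: 96-well plates, 48-hour exposure. Abbreviation: GI50, concentration required for 50% inhibition of growth. At the TGI there is no net growth.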 Some results are limits rather than exact numbers.

In the case of `COC(=O)/C=C1\CCC2[C@@H](C(=O)CC3[C@]2(C)CCC[C@@]3(C)C(=O)OC)C1C` (stereo partly specified), the TGI in assay [1] stood at 28 µM; in assay [2], 71.8 µM; in assay [3] it was 25.9 µM; in assay [4], 52 µM; in assay [5] it was 69.7 µM; in assay [6], 54.1 µM. Further, the TGI in [7] is > 100 µM.

As to `Cc1nc2ccccc2c(=O)n1/N=C(\N=Nc1ccccc1)c1ccccc1Cl`, the TGI in assay [1], in assay [2], in assay [3], in assay [4], in [5] and in [6] was > 100 µM in each case. In addition, the TGI in assay [7] stood at 99.9 µM.

As to `O=CCCn1[nH]c(=O)ccc1=O`, the TGI in assay [1], in assay [2], in assay [3], in [4], in assay [6] and in assay [7] was > 100 µM each time.

With `O=CN/C=C/c1ccccc1`, the TGI in [1], in assay [2], in assay [3], in assay [4], in assay [5] and in assay [6] was > 100 µM each time. In addition, in assay [7], the TGI was > 100 µM.

As to `C=CCCn1nc(-c2ccccc2)oc1=O`, the TGI in [1], in assay [2], in assay [3], in [4], in assay [5] and in [6] was > 100 µM each time. Also, the TGI in [7] was > 100 µM.

As to `O=C1CCCc2ccc([N+](=O)[O-])c(O)c21`, the TGI in [1], in [2], in [3], in assay [4], in assay [5] and in [6] was > 100 µM throughout. For the same compound, in assay [7], the TGI was > 100 µM.

For `Clc1ccc(-c2cnc3c(-c4ccnc(N5CCNCC5)c4)cnn3c2)cc1`, the GI50 in [1] was 1.79 µM; in assay [2], 1.88 µM; in [8], 1.74 µM; in [3], 1.75 µM; in assay [4], 1.96 µM; in [5], 1.92 µM. Further, the figures for the GI50 in assay [9], in [6] and in [7] were 1.89 µM, 1.86 µM and 1.83 µM, respectively. The TGI in assay [1] was found to be 3.22 µM; in assay [2], 3.57 µM; in [8], 3.7 µM; in assay [3], 3.7 µM; in assay [4], 3.69 µM; in [5] it was 3.38 µM. Besides, the TGI worked out at 3.72 µM in assay [9], 3.31 µM in assay [6] and 3.22 µM in [7].

Take `CCOC(=O)NC(=O)c1cn(CCSCCOC(=O)NCCCCCCNC(=O)OCCSCCn2cc(C(=O)NC(=O)OCC)c(=O)n(C)c2=O)c(=O)n(C)c1=O`: the TGI in [2] is > 100 µM; in [3], > 100 µM; in assay [4], > 100 µM; in assay [5], > 100 µM; in assay [6] it was 72.2 µM; in assay [7], 79.8 µM.

Consider `COc1ccc(/C=C/c2onc3c(=O)n(C)nc(-c4ccccc4)c23)cc1`, for which the TGI in [1], in assay [3], in [4], in assay [5] and in [7] was > 100 µM in each case.

`Cn1cnc([N+](=O)[O-])c1Sc1n[nH]c(-c2ccc(Cl)cc2)n1`: the TGI is 29.8 µM in assay [1]; 58.8 µM in assay [2]; 38.1 µM in assay [3]; 77.8 µM in [4]; 54.9 µM in assay [5]; 26.4 µM in assay [6]. The same compound registered a TGI in assay [7] of 51.5 µM.

Consider `C[C@@H]1CC[C@@]2(C)OC(c3ccccc3)[C@H](CO)N2C1=O` (stereo partly specified), for which the TGI in [1], in assay [2], in assay [4], in assay [5], in assay [6] and in [7] was > 100 µM throughout.

In the case of `C[C@]12Cc3conc3C(O)=C1CC[C@@H]1C2CC[C@@]2(C)C1CC[C@@H]2O` (stereo partly specified), the TGI in assay [1] is 29.9 µM; in assay [2] it was 88.3 µM; in assay [3] it was 37.7 µM; in assay [4], 85.2 µM; in assay [5], > 100 µM; in assay [6], 87.2 µM. Also, the TGI in assay [7] was > 100 µM.

`CN(C)CC1(C)CC/C(=C\c2ccc(Cl)cc2)C1=O` (stereo unspecified): the TGI was > 100 µM in [1]; > 100 µM in assay [2]; 55.8 µM in assay [3]; > 100 µM in assay [4]; > 100 µM in assay [5]; > 100 µM in assay [6]. For the same compound, in assay [7], the TGI is > 100 µM.

In the case of `CCCN(CCC)c1ccc(/C=N/NC(=O)c2cccnc2)c(C)c1`, the GI50 in assay [1] was 12.8 µM; in assay [2] it was 10.7 µM; in [10] it was 15.2 µM; in assay [3] it was 16.5 µM; in assay [4] it was 15.7 µM; in [5], 18.2 µM. The GI50 is 5.67 µM in [9], 13 µM in assay [6] and 18.6 µM in assay [7]. Further, the TGI in assay [1] stood at 25.4 µM; in [2], 25.5 µM; in assay [10], 51.5 µM; in [3], 42.6 µM; in [4], 36.8 µM; in [5] it was 43.3 µM. Moreover, the TGI turned out to be 20.8 µM in [9], 28.2 µM in assay [6] and 42.2 µM in assay [7].

In the case of `c1cc[c]([Ge]([O]c2cccc3cccnc23)([c]2ccccc2)[c]2ccccc2)cc1`, the GI50 is 11.2 µM in [2]; 5.34 µM in [4]; 12.7 µM in [5]; 10.4 µM in [6]; 4.7 µM in [7]. For the same compound, the TGI in assay [2] amounted to 23.8 µM; in assay [4], 21.7 µM; in [5], 25.6 µM; in assay [6], 22.4 µM; in assay [7] it was 15.7 µM.

In the case of `C=C(C)CC(C(=O)O)c1ccc(C)cc1` (stereo unspecified), the TGI in assay [1], in [2], in assay [4], in assay [5], in assay [6] and in [7] was > 100 µM each time.

Turning to `N#CC(Sc1ccccc1)C(N)=O` (stereo unspecified), the TGI in assay [1], in assay [2], in assay [3], in [4], in assay [5] and in assay [6] was > 100 µM each time. Also, the TGI in assay [7] is > 100 µM.

Regarding `COc1ccc(C2(Cl)C(Cl)(C(F)(F)F)C2(Cl)C(F)(F)F)cc1` (stereo unspecified), the TGI was determined as 22.1 µM in assay [1]; 29 µM in [2]; 15 µM in assay [3]; 28.1 µM in assay [4]; 32.5 µM in assay [5]; 31 µM in [7].

`C=CC12CCCCC1CC(C(=O)OC)=C(O)C2` (stereo unspecified): the TGI in assay [1], in assay [2], in assay [3], in [4], in [5] and in assay [7] was > 100 µM in each case.

As for `CCOC(=O)C1CC(=O)C=C2CCCCC21` (stereo unspecified), the TGI in [1], in assay [2], in [3], in assay [4], in assay [5] and in assay [6] was > 100 µM each time. Moreover, the TGI in assay [7] is > 100 µM.

In the case of `COc1ccc(C(=O)/C=C/c2cc(-c3ccc(OC)c(OC)c3)n[nH]2)cc1OC`, the GI50 in [1] was 1.58 µM; in [2], 1.6 µM; in assay [8], 1.88 µM; in assay [10] it was 3.43 µM; in assay [3] it was 2.2 µM; in assay [4], 2.25 µM. Besides, the GI50 in [5] is 1.73 µM; in assay [6] it was 2.59 µM; in [7], 1.81 µM. Besides, the TGI in [1] was 2.96 µM; in [2] it was 5.05 µM; in assay [8], 6.38 µM; in assay [10], 33.1 µM; in [3], > 100 µM; in [4], 10.2 µM. For the same compound, the TGI in assay [5] worked out at 5.6 µM; in assay [6], 6.21 µM; in assay [7], 5.14 µM.

On to `O=C1CCC2(c3ccc(Cl)cc3)Nc3ccccc3N12` (stereo unspecified), for which the TGI in assay [2], in assay [3], in assay [4], in [5], in [6] and in assay [7] was > 100 µM each time.

Take `O/N=C1/CCCC/C1=C\c1ccc(Cl)c(Cl)c1`: the TGI is 35.6 µM in assay [1]; > 100 µM in assay [2]; 36.4 µM in assay [3]; > 100 µM in [4]; > 100 µM in assay [5]; > 100 µM in [7].

As for `O=C(O)c1cnc2c(ccc3[nH]cccc32)c1=O`, the TGI in assay [1], in assay [3], in [4], in assay [5], in assay [6] and in [7] was > 100 µM in each case.

With `COc1ccc(O)c(/C=N\Nc2ccccc2)c1`, the TGI is > 100 µM in [1]; > 100 µM in assay [8]; > 100 µM in assay [10]; 18.2 µM in assay [3]; 48.4 µM in assay [4]; > 100 µM in assay [5]. Also, the TGI was 43.8 µM in assay [9] and > 100 µM in [7].
